The text below walks through data of paper PMC13184981, “Discovery and Development of a Potent LIMK2 Isoform-Specific Degrader” (ACS Chemical Biology, 2026).

The structures appear in SMILES notation.

One may read the EC50 as the concentration giving half of the maximal effect.

Data set [1] deals with T1, LIMK1 (Homo sapiens, UniProt P53667).
T1 construct: host or cells: HEK293T
As to the kind of experiment: Western blot of endogenous LIMK1 in HuCCT1 cells. The class given is cell-based. To be noted: HuCCT1, 6 h treatment. Here is the method: (§1) HuCCT1 cell line was cultured in Roswell Park Memorial Institute (RPMI) 1640 medium supplemented with GlutaMAX, 10% fetal bovine serum (FBS), and 1% penicillin/streptomycin. The cell line was maintained in an incubator with 5% CO2 at 37 °C. For the treatment, 3 × 10^5 cells were plated and treated with the compounds and DMSO as the control for 6 h. The cells were then lysed using RIPA buffer (50 mM Tris-HCl pH 7.4, 150 mM NaCl, 1% Triton X-100, 1% NaDOC, 0.1% SDS, 1 mM EDTA), freshly supplemented with protease and phosphatase inhibitor cocktails (Sigma-Aldrich, Darmstadt, Germany). After 1 h incubation on ice, the lysates were centrifuged for 30 min at […], and the protein-containing supernatant was collected. The protein concentrations were determined using Protein Assay Dye Reagent Concentrate (Bradford, Bio-Rad, Hercules, CA, USA) and Pre-Diluted Protein Assay Standards: Bovine Serum Albumin (BSA) Set (Thermo Fisher Scientific, Darmstadt, Germany). Then, equal amounts of protein was mixed with Roti-Load 1 dye (Carl Roth, Karlsruhe, Germany) and 4x Laemmli Buffer (Bio-Rad, Hercules, CA, USA), denatured at 95 °C, and run on NuPAGE 4–12% bis-Tris gels (Thermo Fisher Scientific). Proteins were blotted on methanol-activated PVDF Transfer Membranes (Thermo Fisher Scientific) using the wet transfer method with the transfer buffer (Thermo Fisher Scientific) and 20% methanol. […]
(In western blotting, separated proteins are transferred to a membrane and probed.)

The test system of data set [2] is phospho-Cofilin (pCFL). Description: Western blot of phospho-cofilin in HuCCT1 cells. The class given is cell-based, human. Particulars: HuCCT1, 6 h. As to the method:
as §1

Data set [3] concerns the target T2, NanoLuc-tagged LIMK1 and Halo-tagged CRBN (Homo sapiens, UniProt P53667+Q96SW2).
T2 construct: CRBN vector in-house NV3391; host or cells: HEK293T
Description: NanoBRET cellular ternary complex formation, LIMK1. The data set is classed as cell-based. The text has this: Next, we assessed ternary complex formation for the parent and lead PROTACs in live cells using the NanoBRET proximity assay. A ternary complex assay system was established using NanoLuc-tagged LIMKs and Halo-tagged CRBN. Formation of the ternary complex upon PROTAC addition was quantified by measuring the BRET signal. […] However, they differed in the strength of the ternary complex. […] We also confirmed the differences in ternary complex strength using the orthogonal PROXICapture approach, in which MOLT-4 cell lysate was passed over immobilized FLAG-tagged CRBN preincubated with THNAN69.
Gene encoding LIMK1 (Promega, NV3391) and LIMK2 (Promega, NV1531) proteins cloned in frame with NanoLuc fusion tag at the C-Terminus and gene encoding cereblon (generated in-house) cloned in frame with Halo Tag at the N-Terminus, were used to measure the end-point ternary complex formation between the PROTACs and LIMK1 and LIMK2, respectively. […] To measure BRET, NanoBRET NanoGlo Substrate + Extracellular NanoLuc Inhibitor (Promega, N2162) was added to cells as per the manufacturer’s protocol, and filtered luminescence was measured on a PHERAstar FSX plate reader (BMG Labtech) equipped with a luminescence filter pair (450 nm BP filter (donor) and 610 nm LP filter (acceptor)). […]
For orientation: In BRET a luciferase serves as donor, and the signal depends on an acceptor being close.

The test system of data set [4] is HEK293T cells. Description: CellTiter-Glo 2.0 cell viability assay. Particulars: 24-h treatment, 25 nM to 20 µM. The class given is cell-based, human. Here is the method: The effects of the PROTAC on cell viability were determined using the CellTiter-Glo 2.0 Cell Viability Assay (Promega, G9241) following the manufacturer’s protocol. […] 40 μL of assay reagent was added and incubated for 10 min at RT. Filtered luminescence was measured using a PHERAstar plate reader (BMG Labtech), and data were analyzed using GraphPad Prism 9.
For orientation: ATP-based viability assays read luminescence as a measure of living cells.

Data set [5] addresses T3, EGFP–LIMK2 (Homo sapiens, UniProt P53671).
T3 construct: P2A remnant (from EGFP-LIMK2-P2A-mCherry; that residues stay on LIMK2 after self-cleavage is own knowledge) (C); expressed in transfected cells; host or cells: HuCCT1 (lentiviral transduction, doxycycline-inducible pCW57 vector)
As to the kind of experiment: EGFP-LIMK2 depletion live-cell assay (Incucyte). The class given is cell-based.

T3 sequence (P53671 whole entry): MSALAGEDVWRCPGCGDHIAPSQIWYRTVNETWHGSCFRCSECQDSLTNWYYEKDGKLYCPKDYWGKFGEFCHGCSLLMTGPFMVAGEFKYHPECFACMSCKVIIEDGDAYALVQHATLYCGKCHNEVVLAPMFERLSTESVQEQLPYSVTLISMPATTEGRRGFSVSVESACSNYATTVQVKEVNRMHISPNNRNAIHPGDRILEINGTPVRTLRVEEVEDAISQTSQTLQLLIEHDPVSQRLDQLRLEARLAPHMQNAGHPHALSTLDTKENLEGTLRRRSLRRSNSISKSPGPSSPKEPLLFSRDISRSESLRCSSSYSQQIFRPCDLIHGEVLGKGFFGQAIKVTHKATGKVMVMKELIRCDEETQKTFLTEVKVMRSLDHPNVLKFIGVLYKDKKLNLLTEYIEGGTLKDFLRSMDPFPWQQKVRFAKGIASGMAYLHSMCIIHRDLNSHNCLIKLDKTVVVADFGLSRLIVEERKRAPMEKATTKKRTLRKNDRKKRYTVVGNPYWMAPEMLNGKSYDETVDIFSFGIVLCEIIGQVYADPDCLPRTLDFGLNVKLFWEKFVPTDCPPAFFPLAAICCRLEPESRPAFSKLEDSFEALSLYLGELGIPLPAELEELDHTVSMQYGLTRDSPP
T1 sequence (P53667 whole entry): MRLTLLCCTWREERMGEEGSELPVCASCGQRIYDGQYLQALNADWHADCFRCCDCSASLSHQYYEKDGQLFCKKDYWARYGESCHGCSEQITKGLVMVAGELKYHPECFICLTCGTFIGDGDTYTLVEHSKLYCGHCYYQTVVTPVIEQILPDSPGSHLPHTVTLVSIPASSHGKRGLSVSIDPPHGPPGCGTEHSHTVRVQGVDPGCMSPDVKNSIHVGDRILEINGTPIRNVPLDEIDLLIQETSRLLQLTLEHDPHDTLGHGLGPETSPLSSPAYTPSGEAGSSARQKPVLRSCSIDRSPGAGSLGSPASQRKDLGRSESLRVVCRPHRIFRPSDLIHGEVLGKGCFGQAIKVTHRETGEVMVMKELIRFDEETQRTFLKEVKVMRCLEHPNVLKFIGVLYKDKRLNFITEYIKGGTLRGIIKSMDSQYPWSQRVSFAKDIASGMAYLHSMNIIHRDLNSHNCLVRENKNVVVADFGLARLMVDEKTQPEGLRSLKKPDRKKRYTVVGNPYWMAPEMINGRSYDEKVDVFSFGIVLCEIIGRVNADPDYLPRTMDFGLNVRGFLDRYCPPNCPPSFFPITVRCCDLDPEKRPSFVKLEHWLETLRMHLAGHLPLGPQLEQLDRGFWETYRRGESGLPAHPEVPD
T2 sequence (P53667 whole entry): as above
T2 sequence (Q96SW2 whole entry): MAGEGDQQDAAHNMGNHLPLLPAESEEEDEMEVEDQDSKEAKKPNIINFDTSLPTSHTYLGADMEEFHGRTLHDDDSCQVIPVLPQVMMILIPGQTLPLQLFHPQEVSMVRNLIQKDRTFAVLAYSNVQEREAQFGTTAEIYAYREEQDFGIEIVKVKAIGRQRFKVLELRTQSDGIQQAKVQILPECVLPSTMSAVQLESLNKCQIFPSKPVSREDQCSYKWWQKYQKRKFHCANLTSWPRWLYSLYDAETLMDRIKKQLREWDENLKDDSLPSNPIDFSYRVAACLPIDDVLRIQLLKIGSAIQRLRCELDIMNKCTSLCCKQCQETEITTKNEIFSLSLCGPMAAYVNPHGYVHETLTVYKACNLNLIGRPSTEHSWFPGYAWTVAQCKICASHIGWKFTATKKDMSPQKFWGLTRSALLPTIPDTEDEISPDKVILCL
T2 sequence (Q16531 whole entry partner): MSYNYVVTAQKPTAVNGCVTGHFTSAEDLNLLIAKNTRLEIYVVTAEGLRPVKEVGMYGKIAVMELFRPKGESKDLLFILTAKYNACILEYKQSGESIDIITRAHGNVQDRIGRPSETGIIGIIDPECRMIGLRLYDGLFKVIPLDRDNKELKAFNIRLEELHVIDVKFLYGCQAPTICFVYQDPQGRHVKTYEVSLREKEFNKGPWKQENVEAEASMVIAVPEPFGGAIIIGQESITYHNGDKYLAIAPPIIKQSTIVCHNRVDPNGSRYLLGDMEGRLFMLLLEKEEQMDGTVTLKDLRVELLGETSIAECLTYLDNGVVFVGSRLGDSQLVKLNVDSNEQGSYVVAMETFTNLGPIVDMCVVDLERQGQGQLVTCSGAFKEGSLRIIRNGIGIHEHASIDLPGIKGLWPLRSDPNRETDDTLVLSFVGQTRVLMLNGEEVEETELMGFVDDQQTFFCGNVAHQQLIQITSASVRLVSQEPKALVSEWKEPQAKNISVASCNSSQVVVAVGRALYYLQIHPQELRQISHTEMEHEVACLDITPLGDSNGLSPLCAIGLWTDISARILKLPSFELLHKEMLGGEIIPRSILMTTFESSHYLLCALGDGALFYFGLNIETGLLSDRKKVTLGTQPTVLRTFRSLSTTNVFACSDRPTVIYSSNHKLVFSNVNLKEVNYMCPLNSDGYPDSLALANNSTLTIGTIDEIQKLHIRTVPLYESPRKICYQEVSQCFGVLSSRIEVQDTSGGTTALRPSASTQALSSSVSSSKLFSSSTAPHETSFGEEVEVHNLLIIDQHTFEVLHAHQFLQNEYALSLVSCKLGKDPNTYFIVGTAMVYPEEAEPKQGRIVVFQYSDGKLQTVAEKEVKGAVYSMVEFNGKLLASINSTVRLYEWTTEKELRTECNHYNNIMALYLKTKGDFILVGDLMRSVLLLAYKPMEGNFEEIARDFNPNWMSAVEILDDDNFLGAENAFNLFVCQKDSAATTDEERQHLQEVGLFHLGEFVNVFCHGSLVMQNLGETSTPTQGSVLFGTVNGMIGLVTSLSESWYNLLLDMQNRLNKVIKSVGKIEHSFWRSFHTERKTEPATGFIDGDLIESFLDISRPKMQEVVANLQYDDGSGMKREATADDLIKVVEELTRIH

As for `Cc1c(OCc2cn(CCCCC(=O)Nc3ncc(-c4cc(C(F)F)nn4-c4c(Cl)cccc4Cl)s3)nn2)cccc1N1CCC(=O)NC1=O` [22b], in data set [1], the “LIMK1 degradation (Western blot)” value is listed as “LIMK1 protein levels remained unaffected”. In data set [2], the “pCFL levels (Western blot)” value is recorded as “no significant changes in pCFL”. In data set [3], a half-maximal effect (EC50) was put at 0.3 µM. In addition, in data set [4], the cytotoxic effects result was “no cytotoxic effects”. The Dmax in data set [5] (0.01 nM PROTAC) was 4.5%; in data set [5] (10000 nM PROTAC), 96.1%.
